In patent US12492185B2, “Benzimidazole derivatives and their uses” (Teijin Pharma Limited, priority 2019, dated 2025):
pIC50: −log10 of the molar value.

molecular target: T1, human TRPC6 (Homo sapiens, UniProt Q9Y210); assay: TRPC6 Calcium Flux Assay; assay type: cell-based; details: inhibition of OAG-triggered calcium influx in HEK293 cells stably transfected with human TRPC6; FLIPR; 25 min compound preincubation; 50 uM OAG; read-out: hTRPC6 Potency
T1 construct: expressed in transfected cells
T1 sequence (Q9Y210 1-931): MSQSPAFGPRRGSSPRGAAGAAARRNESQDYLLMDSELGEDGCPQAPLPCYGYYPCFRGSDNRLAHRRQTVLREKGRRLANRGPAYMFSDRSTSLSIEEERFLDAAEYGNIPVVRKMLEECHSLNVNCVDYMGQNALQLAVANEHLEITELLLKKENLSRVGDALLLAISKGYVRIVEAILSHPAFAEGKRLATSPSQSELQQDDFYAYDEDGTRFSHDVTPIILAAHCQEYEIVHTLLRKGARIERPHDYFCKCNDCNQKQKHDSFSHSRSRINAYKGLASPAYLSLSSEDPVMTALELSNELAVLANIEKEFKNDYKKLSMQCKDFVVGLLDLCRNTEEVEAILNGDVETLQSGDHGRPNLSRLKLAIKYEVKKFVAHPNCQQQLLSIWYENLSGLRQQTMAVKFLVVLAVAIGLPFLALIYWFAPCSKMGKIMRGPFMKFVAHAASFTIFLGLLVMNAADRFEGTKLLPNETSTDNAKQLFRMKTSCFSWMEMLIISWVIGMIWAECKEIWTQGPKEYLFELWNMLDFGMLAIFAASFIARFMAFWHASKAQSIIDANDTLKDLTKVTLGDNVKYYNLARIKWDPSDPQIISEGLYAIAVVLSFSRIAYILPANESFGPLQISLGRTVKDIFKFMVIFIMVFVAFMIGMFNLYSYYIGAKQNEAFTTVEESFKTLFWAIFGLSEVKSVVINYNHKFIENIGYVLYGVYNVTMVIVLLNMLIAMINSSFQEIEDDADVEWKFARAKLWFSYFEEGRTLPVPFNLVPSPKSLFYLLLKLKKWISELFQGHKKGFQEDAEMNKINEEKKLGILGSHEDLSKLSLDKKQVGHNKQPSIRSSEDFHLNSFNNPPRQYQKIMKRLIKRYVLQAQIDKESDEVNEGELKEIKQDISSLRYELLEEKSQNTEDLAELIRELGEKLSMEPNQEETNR
Procedure: Potency of TRPC6 (Transient receptor potential channel family C6) inhibitors were measured by their inhibition of Calcium influx trigged by OAG (1-Oleoyl-2-acetyl-sn-glycerol, Millipore Sigma, O6754) stimulation on HEK293 cells stably transfected with human TRPC6 using a FLIPR tetra system (BD PBX Calcium Assay Kit; BD Biosciences, San Jose Calif.). Cells were grown in a humidified environment at 37° C. under 5% CO2 using the growth medium with the following selective reagents (Dulbecco's Modified Eagle's Medium (DMEM) high glucose, 10% Fetal Bovine Serum, 1×PSGlu (penicillin-streptomycin glutamine), 1×NEAA (Non-essential amino acid), 1×Na Pyruvate and 200 ug/ml Hygromycin). For general passage, cells were grown to 70-90% confluency; the media was removed, and the cells were gently washed 2 times with calcium and magnesium free PBS (phosphate-buffered saline). Trypsin (3 mL) was applied for 5 minutes at 37° C. The cells were dislodged by rapping flask against base of a hand and 7 mL of growth medium was added to deactivate trypsin and re-suspend cells. The usual splitting schedule was 1:5 every 2-3 days.
Cells were plated the day before the assay, plating cell density is 1.0-1.5×10^4/25 μl/well in poly-D-lysine (PDL) coated 384-well plates using either multichannel pipettes or multidrop. These cells were first incubated with fluorescence dye at room temperature for 90-120 minutes after they were grown on PDL-coated 384-well black plates overnight (Dye loading buffer 10 ml example: 9 mL assay buffer, 1 mL, 10×PBX signal enhancer, 10 μL Calcium indicator). The cells were incubated with a dose of compounds for 25 minutes before being stimulated with TRPC6 agonist OAG. The OAG solution was prepared by adding OAG into assay buffer (Ca ringer solution base: 10 mM HEPES (4-(2-hydroxyethyl)-1-piperazine-ethanesulfonic acid), 4 mM MgCl2, 120 mM NaCl, 5 mM KCl, pH=7.2 @25° C.)+0.1% BSA+2 mM CaCl2) to the concentration of 0.2 mM/2% DMSO, which achieves a final on cell concentration of 50 uM/0.5% DMSO. 12.5 uL OAG mixture was added and the activation of the TRPC6 channel was measured by the change of intracellular Calcium levels on FLIPR terra system.
Data was acquired by measuring the fluorescent peak signal subtracted from the background during the 180 second imaging frame. Each data point is further normalized to 100% of OAG triggered signal vs. buffer. Table 3 provides the IC50 for each compound, which data is obtained by plotting peak signal over the compound dose.

Point of comparison: `N[C@@H]1CN(c2nc3ccc(F)cc3n2Cc2ccc(F)cn2)CCC1(F)F` (single isomer, unassigned) [Example 7], pIC50 7.64. Against it:
- N[C@@H]1CN(c2nc3cc(F)ccc3n2Cc2ccc(F)cn2)CC[C@H]1F (single isomer, unassigned) [Example 1] — 1.51 log units higher, 9.15
- N[C@@H]1CN(c2nc3cc(F)cc(F)c3n2Cc2ccc(F)cn2)CCC1(F)F (single isomer, unassigned) [Example 2] — 1.02 log units higher, 8.66
- N[C@@H]1CN(c2nc3ccc(F)cc3n2Cc2ncc(F)cn2)CC[C@H]1F (single isomer, unassigned) [Example 3] — 2.06 log units higher, 9.70
- N[C@@H]1CN(c2nc3ccc(F)cc3n2Cc2ccc(F)cn2)CC[C@H]1F (single isomer, unassigned) [Example 4] — 1.76 log units higher, 9.40
- N[C@@H]1CN(c2nc3cc(F)ccc3n2Cc2ccc(Cl)cn2)CCC1(F)F (single isomer, unassigned) [Example 5] — 1.88 log units higher, 9.52
- N[C@@H]1CN(c2nc3ccc(F)cc3n2Cc2ncc(Cl)cn2)CCC1(F)F (single isomer, unassigned) [Example 6] — 1.36 log units higher, 9.00
- COc1cnc(Cn2c(N3CC[C@@H](F)[C@H](N)C3)nc3c(F)cc(F)cc32)nc1 (single isomer, unassigned) [Example 9] — 1.66 log units higher, 9.30
- N[C@@H]1CN(c2nc3ccc(F)cc3n2Cc2ccc(Cl)cn2)CCC1(F)F (single isomer, unassigned) [Example 10] — 0.96 log units higher, 8.60
- N[C@@H]1CN(c2nc3cc(F)ccc3n2Cc2ncc(F)cn2)CC[C@H]1F (single isomer, unassigned) [Example 11] — 1.76 log units higher, 9.40
- N[C@@H]1CN(c2nc3ccc(F)cc3n2Cc2ccc(Cl)cn2)CC[C@H]1F (single isomer, unassigned) [Example 12, (3R.4R)-1-(1-((5-chloro-2-pyridinyl)methyl)-6-fluoro-1H-benzimidazol-2-yl)-4-fluoro-3-piperidinamine] — 1.36 log units higher, 9.00
- N#Cc1ccc2nc(N3CCC(F)(F)[C@H](N)C3)n(Cc3ccc(Cl)cn3)c2c1 (single isomer, unassigned) [Example 13] — 1.25 log units higher, 8.89
- N[C@@H]1CN(c2nc3c(F)cc(F)cc3n2Cc2ncc(Cl)cn2)CCC1(F)F (single isomer, unassigned) [Example 14] — 1.28 log units higher, 8.92
- N#Cc1cc(F)cc2c1nc(N1CC[C@@H](F)[C@H](N)C1)n2Cc1ccc(F)cn1 (single isomer, unassigned) [Example 15] — 1.36 log units higher, 9.00
- COc1cc(F)c2nc(N3CC[C@@H](F)[C@H](N)C3)n(Cc3ncc(Cl)cn3)c2c1 (single isomer, unassigned) [Example 21] — 1.76 log units higher, 9.40
- Cc1ccc(Cn2c(N3CC[C@@H](F)[C@H](N)C3)nc3cc(F)c(F)cc32)nc1 [Example 8, (3R,4R)-1-(5,6-difluoro-1-((5-methyl-2-pyridinyl)methyl)-1H-benzimidazol-2-yl)-4-fluoro-3-piperidinamine] — 2.36 log units higher, 10.00
- N[C@@H]1CN(c2nc3cc(F)c(F)cc3n2Cc2ccc(Cl)cn2)CCC1(F)F [Example 16, (3R)-1-(1-((5-chloro-2-pyridinyl)methyl)-5,6-difluoro-1H-benzimidazol-2-yl)-4,4-difluoro-3-piperidinamine] — 1.58 log units higher, 9.22
- N[C@@H]1CN(c2nc3cc(F)c(F)cc3n2Cc2ncc(Cl)cn2)CCC1(F)F [Example 17, (3R)-1-(1-((5-chloro-2-pyrimidinyl)methyl)-5,6-difluoro-1H-benzimidazol-2-yl)-4,4-difluoro-3-piperidinamine] — 1.58 log units higher, 9.22
- N[C@@H]1CN(c2nc3cc(F)c(F)cc3n2Cc2ncc(Cl)cn2)CC[C@H]1F [Example 18, (3R,4R)-1-(1-((5-chloro-2-pyrimidinyl)methyl)-5,6-difluoro-1H-benzimidazol-2-yl)-4-fluoro-3-piperidinamine] — 1.28 log units higher, 8.92
- COc1cnc(Cn2c(N3CC[C@@H](F)[C@H](N)C3)nc3cc(F)c(F)cc32)nc1 [Example 19, (3R,4R)-1-(5,6-difluoro-1-((5-methoxy-2-pyrimidinyl)methyl)-1H-benzimidazol-2-yl)-4-fluoro-3-piperidinamine] — 1.28 log units higher, 8.92
- N#Cc1cccc(Cn2c(N3CC[C@@H](F)[C@H](N)C3)nc3cc(F)c(F)cc32)n1 [Example 20, 6-((2-((3R,4R)-3-amino-4-fluoro-1-piperidinyl)-5,6-difluoro-1H-benzimidazol-1-yl)methyl)-2-pyridinecarbonitrile] — 1.10 log units higher, 8.74
